The values below come from patent publication US8277839B2, “Oral pharmaceutical composition of anilinopyrimidine, preparation and use thereof” (Ares Trading S.A., priority 2006, dated 2012).

Data set [1] is described as follows: visual solubility test (apparent solubility in different excipients). Format: physicochemical. The conditions noted are these: for solubility: thermodynamic from solid. The method, then:
Subsequently in order to analyze the solubility of the anilinopyrimidine of Formula (I) and to identify the preferred excipients, ten solutions of batch FD050007 and ten solution of the starting batch 61569-02 were prepared and analized with a visual solubility test.
A data summary for the anilinopyrimidine derivative of Formula (I) apparent solubility in different excipients is given in Table 2.

In data set [2] the test system is primary fresh cells from Acute Myeloid Leukemia (AML) patients. The conditions noted are these: most primary fresh cells from AML patients; cited from earlier work.
Setting [3] is: in Cremophor EL (castor oil-ethylene oxide).
The mark [4] stands for this setting: in Labrafil M1944CS (oleoyl macrogol glyceride).

Values after ≈ are worked out from the molar mass of the structure shown.

With `CC(=O)N1CCN(C(=O)c2ccc(Nc3nccc(-c4ccc(Cl)cc4)n3)cc2)CC1` [Formula (I), 1-(4{4-[4-(4-Chloro-phenyl)-pyrimidin-2-ylamino]-benzoyl}-piperazin-1-yl)-ethanone], in data set [1] (in particular in Capmul MCM C10, Lutrol E600 and Capmul MCM-Lutrol E600 1:1), the “solubility, milled versus starting batch” value is listed as “better solubility when milled”. For the same compound, in data set [2], the cell death entry is “induces cell death”.

The term solubility denotes how much of the substance goes into solution per volume. Turning to `CC(=O)N1CCN(C(=O)c2ccc(Nc3nccc(-c4ccc(Cl)cc4)n3)cc2)CC1` [Formula 61569-02, 1-(4{4-[4-(4-Chloro-phenyl)-pyrimidin-2-ylamino]-benzoyl}-piperazin-1-yl)-ethanone], the solubility in data set [1] (Capmul GMO-50, oil or lipid, in Capmul GMO-50) was determined as 20.2 mg/mL; in data set [1] (Capmul MCM C10 (glyceril monocaprate), oil or lipid, in Capmul MCM C10 (glyceril monocaprate)) it was 59.5 mg/mL; in data set [1] (Capmul MCM-Lutrol E600 1:1, organic solvent or mixture, in Capmul MCM-Lutrol E600 1:1), 115 mg/mL; in data set [1] (Lutrol E600 (PEG 600), organic solvent or mixture, in Lutrol E600 (PEG 600)), 104 mg/mL. Moreover, the apparent solubility result in data set [1] (setting [3]) is recorded as “Suspension”; in data set [1] (setting [4]) it was “Suspension”; in data set [1] (in Labrasol (caprylocapryoyl macrogol glyceride)), “Suspension”; in data set [1] (in Transcutol HP), “Suspension”; in data set [1] (in Vitamin E TPGS) it was “Solid”.

Turning to `CC(=O)N1CCN(C(=O)c2ccc(Nc3nccc(-c4ccc(Cl)cc4)n3)cc2)CC1` [FD050007, 1-(4{4-[4-(4-Chloro-phenyl)-pyrimidin-2-ylamino]-benzoyl}-piperazin-1-yl)-ethanone], the solubility in data set [1] (HP-β-CD, aqueous with cosolvent or surfactant or cyclodextrin, in HP-β-CD) amounted to 5.75 mg/mL (≈ 13.2 mM); in data set [1] (Labrasol (caprylocapryoyl macrogol glyceride), oil or lipid, in Labrasol (caprylocapryoyl macrogol glyceride)), 26.3 mg/mL (≈ 60.3 mM); in data set [1] (Transcutol HP, organic solvent or mixture, in Transcutol HP), 26.2 mg/mL (≈ 60.1 mM). Besides, the apparent solubility in data set [1] (in Capmul GMO-50) is 19.6 mg/mL; in data set [1] (in Capmul MCM C10 (glyceril monocaprate)), 54 mg/mL; in data set [1] (in Capmul MCM-Lutrol E600 1:1), 115 mg/mL; in data set [1] (setting [3]), “Suspension”; in data set [1] (setting [4]) it was “Suspension”; in data set [1] (in Lutrol E600 (PEG 600)) it was 115 mg/mL. Also, the apparent solubility result in data set [1] (in Vitamin E TPGS) was “Solid”.
